Data from a melting point compilation (Tetko et al.; mined from patent text by program, amines drawn as free bases though some values may be those of a salt).

melting point [°C]	SMILES
114	CC(C)(C)C(=O)COC(=O)C1(C(=O)OCc2ccccc2)CCCN(C(=O)OCC(Cl)(Cl)Cl)C1 (stereo not drawn)
> 75	CCCCc1nn(-c2cc(N)ccc2Cl)c(C(=O)OCC)c1Cc1ccc(-c2ccccc2S(=O)(=O)NC(=O)c2ccccc2Cl)cc1
242	O=C(O)c1cn(-c2ccc(F)cc2)c2cc(N3CCNC(c4ccco4)C3)c(F)cc2c1=O (stereo not drawn)
226 to 228	Cc1cn(-c2cc(NC(=O)c3ccc(C)c(C#Cc4ccc(NC5CC5)nn4)c3)cc(C(F)(F)F)c2)cn1
139 to 142	Cc1c(C(=O)CC(C)(C)C)c2ccccc2n1CCCNS(C)(=O)=O
213 to 214	COc1ccc(Oc2ccc3c(c2)SC(c2ccc(OC)cc2)C(O)C(=O)N3)cc1 (stereo not drawn)
225 to 228	O=P(c1ccccc1)(c1ccccc1)c1nnc(P(=O)(c2ccccc2)c2ccccc2)c2ccccc12
140	COc1ccccc1C1(O)C(O)CCC2CN(Cc3ccccc3)CC21 (stereo not drawn)
240 to 241	CCOC(=O)c1csc(-c2cc3cccc(NS(=O)(=O)c4cccs4)c3[nH]2)n1
177 to 179	Nc1ccc(CC(=O)N2CCC(c3[nH]nc4c3C(=O)c3c(NC(=O)NN5CCOCC5)cccc3-4)CC2)cc1
140 to 142	CN(C)C=NC(=O)c1c(N2CCN(Cc3ccccc3)CC2)nn2c(-c3cccc(C(F)(F)F)c3)ccnc12
226 to 227	CC(C)CC(=O)NCc1ccc(NC(=O)/C=C/c2cnn(C)c2-c2ccc(F)cc2)cc1
187 to 190	CN(CCN1CCC[C@@H](C(=O)O)C1)C1c2ccccc2CCc2ccccc21
143 to 146	OC1(c2ccccc2Cc2cc(F)ccc2F)CCN(Cc2ccccc2)CC1
151 to 153	O=[N+]([O-])c1c(SCc2ccccc2)ccc2ccncc12
100	COC(=O)[C@@H]1C[C@@H](O)CN1S(=O)(=O)c1ccc(Cl)c(COc2cccc3c(C)cc(C)nc23)c1Cl
145 to 147	CS(=O)(=O)Nn1c(=O)[nH]c2cc(C(F)(F)F)c(-c3ccc(C#N)cc3)cc2c1=O
92 to 100	CCc1cc(C2(c3ccc(F)c(-c4cnccc4F)c3)N=C(N)N(C)C2=O)cc(CC)n1 (stereo not drawn)
222	COC1CCN(c2cc3c(cc2C#Cc2ccccc2)NC(=O)CC(c2cccc(-n4ccnc4)c2)=N3)CC1
148 to 150	CCCC(=O)c1cnc2c(CO)cccc2c1Nc1ccccc1C
175	Cc1ccc(S(=O)(=O)NC[C@@H]2C[C@@H](S)CN2S(=O)(=O)c2ccc3ccccc3c2)cc1
125 to 126	COC(=O)c1sc2ccc(Br)cc2c1-c1ccccc1
152	COc1cc2c(cc1OC)CN(CCc1cccc(NC(=O)c3cccc4c(=O)c5cccc(OC)c5[nH]c34)c1)CC2
230 to 234	c1cc(-n2ccnc2)cc(-n2cnc3cc(-c4ccon4)ccc32)c1

melting point [°C]	SMILES
77 to 78	CCOC(=O)c1conc1-c1ccc(Cl)c(F)c1
115 to 116	COC(=O)C(Oc1ccc(C(=O)CN2CCN(c3ccncc3)CC2)cc1)C(=O)OC
220 to 222	CC(C)c1ccc(-c2csc(-c3cccc(C(=O)O)c3)c2)cc1
137 to 142	CCc1nc2c(C)cc(C)nc2n1Cc1ccc(C(c2ccccc2)C(C(=O)O)C(=O)O)cc1 (stereo not drawn)
102 to 103	CCOC(=O)c1c(C)cc2ncn(-c3ccccc3)c(=O)c2c1C
110 to 112	O=C(c1ccc(Br)cc1)N1CC(=O)N(CCc2ccccc2)C(=O)C1
234 to 235	CC1(Cn2c(=O)n(-c3ccccc3)c3ccccc32)Cn2cc([N+](=O)[O-])nc2O1 (stereo not drawn)
143	CN(C)CCCNC1c2ccccc2C(=O)N1c1ccc2ccc(Cl)nc2n1 (stereo not drawn)
221 to 223	CC(C)n1nc(-c2cc(C#N)c(C(N)=O)nc2-c2ccccc2)ccc1=O
122 to 124	COc1ccc(CC2N(C)CCC(O)(c3ccccc3)C2(C)C)cc1 (stereo not drawn)
220	Cc1nn(-c2c(Cl)cc(Cl)cc2Cl)c(N)c1C(=O)c1ccccc1Cl
180	COc1ccc(-c2nc(-c3nccn3Cc3ccccc3)[nH]c2-c2ccc(OC)cc2)cc1
216 to 217	C(=Cc1ccc(-c2noc3ccccc23)cc1)c1ccc(-c2nc(-c3ccccc3)no2)cc1
213 to 215	CC(=O)Nc1ccc2c(c1)cc(C(=O)c1ccc(F)cc1)n2C
203 to 205	O=C1NC(=O)c2c1c(-c1ccccc1Cl)cc1c2c(Br)c(CO)n1CCCO
82 to 84	CN(C)CC1CN(Cc2ccccc2)c2ccccc2N1C=O (stereo not drawn)
167 to 168	CCOC(=O)c1ccc(-c2ccc(-c3ccc(Cl)cc3)s2)cc1
188	CCCc1nc2c(NOC)nc(C(c3ccccc3)(c3ccccc3)c3ccccc3)nc2n1CO
229	CS(=O)(=O)N1CCN2C(=O)N(c3cc(Cl)cc(Cl)c3)C(=O)C2(Cc2ccc(Br)cc2)C1 (stereo not drawn)
110 to 112	CNC(=O)OCc1c(COC(=O)NC)c(-c2ccc(OC)cc2)n2c1Cc1cc(OC)ccc1-2
80.5 to 81	Cc1cc(-c2ccccc2)c(=O)n2c1-c1sccc1CC2
292	Cc1ccc2c(c1)C=Cc1cc(C)c(C)cc1C2c1cn(Cc2ccc(C(=O)O)o2)c(=O)[nH]c1=S (stereo not drawn)
62 to 63	COC(=O)c1c(C)nc(-c2ccccc2)nc1-c1cccc(OC(F)F)c1

Continued, compound first:

SMILES	melting point [°C]
CC(C)NC(=O)C(F)(F)C(F)(F)F	54 to 56
O=C1CCC(c2ccc3c(c2)NCCO3)=NN1	198 to 199
Cc1cc2c(cc1C)[C@@H](O)[C@H](CN1CCC3(CC1)C(=O)NCN3c1ccccc1)CC2 (relative stereo)	232 to 233
C=CC1=C(C)c2cc3[nH]c(cc4nc(cc5[nH]c(cc1n2)c(C)c5CCC(=O)OCCN(C)C)C(CCC(=O)OCCN(C)C)=C4C)c(C)c3C=C	187 to 191
O=C(NC1N=C(c2ccccc2)c2ccccc2NC1=O)c1cccc2ccccc12 (racemic)	162 to 167
COC1CCCn2c1nc(C)c(CCN1CCC(c3noc4cc(F)ccc34)CC1)c2=O (stereo not drawn)	131
C=CCNC(=S)N1CCc2[nH]cnc2C1CC (stereo not drawn)	205
N#CC(Cl)=C(Cl)S(=O)(=O)c1cc(Cl)ccc1Cl	84
CC1(C)Oc2ccc(OCc3ccccc3)cc2C2OC21 (stereo not drawn)	70 to 72
CC(=O)c1cc(-c2ccncc2)sc1Oc1cc(F)ccc1F	119 to 121
Cc1ccc2c(c1)Cn1nnnc1C(=S)N2	293 to 296
O=C(O)c1cc(Cl)ccc1S	192 to 194
COc1ccc2[nH]c(SCc3ncc(C)c(N4CCCC4)c3Cl)nc2c1	152 to 158
O=C=Nc1ccc(F)cc1	93 to 94
O=[N+]([O-])c1ccc(CO)cc1OC1CCCC1	54
C=CCn1c(OC)n[nH]c1=O	111
COc1ccc2[nH]c(S(=O)Cc3cc(N(C)C)ncn3)nc2c1 (stereo not drawn)	104 to 106
COC(=O)c1c(C)nc2c(c1N(C)C)c1ccccc1n2C	106 to 108
COC(=O)c1cc2scc(Br)c2nc1C(=O)OC	165 to 168
Cc1[nH]c(=O)sc1C(=O)c1ccc(F)cc1	209 to 210
Nc1cccc(-c2ccc(CCN(CC3CCCCC3)CC3CCCCC3)cc2)n1	75 to 85
COc1ccc2c3c1OC1CC(O)C=CC31CCN(C(=O)Nc1ccccc1)C2 (stereo not drawn)	198 to 199
COC1=CC(=NC2CCCCC2)c2ccccc2C1=O	145 to 147
CC(=O)C(Cl)=NNc1ccccc1	132 to 134
O=C1Nc2ccc(Br)cc2C12OCCCO2	166 to 168
CC(C)(C)OC1CCC(C(=O)O)CC1 (stereo not drawn)	100 to 105

SMILES	melting point [°C]
COC(=O)c1cc(=O)n(-c2c(Cl)cc(C(F)(F)F)cc2Cl)[nH]1	245 to 246
CCOC(=O)c1[nH]c(C)c(C(C)C)c1C	105 to 108
CSc1c(C(N)=S)nn(-c2c(Cl)cc(C(F)(F)F)cc2Cl)c1N	161
CCOc1ccc([N+](=O)[O-])c(Nc2ccc(OC)cc2)c1	109
CSc1c(C(=O)O)ccc(Br)c1Cl	128 to 130
CC(C)N(O)C(=O)CCC1C=CC2=C(Cc3ccccc3CO2)C1=O (stereo not drawn)	118
COc1cc2c(cc1Nc1ncc(Cl)c(N[C@@H]3CCCC[C@H]3NS(C)(=O)=O)n1)N(C)CCN(C[C@@H](O)C(F)(F)F)C2	63 to 66
O=C1N(C2CCCCC2)CC(CCl)C1(c1ccccc1)c1ccccc1 (stereo not drawn)	124 to 126
O=C(c1ccccc1)C(Br)(Br)Br	63 to 64
COc1ccc2sc3c(c2c1)OC(C)CNC3=O (stereo not drawn)	185 to 186
COc1ccc(CC(=O)NC(=NOCC2CC2)c2c(F)cccc2C(F)(F)F)cc1	75 to 76
CON1CCC2(CC1)C(OCc1ccccc1)=C(c1c(C)cc(C)cc1C)C(=O)N2C	139 to 141
O=[N+]([O-])c1cc2c(Nc3ccc(F)c(Cl)c3)ncnc2cc1OC1CCCC1	230
CS(=O)c1cnc2ccsc2c1O (stereo not drawn)	271 to 273
Nc1ccc(Cl)cc1NCC1CCCCC1	62
N#Cc1cccnc1N1CCN(CNC(=O)c2ccccc2)CC1	133 to 136
Fc1cccc2nc(S)oc12	232 to 234
Cc1oc(C=Cc2cccc(Cl)c2)nc1C(=O)O	213 to 214
COc1ccc(Cn2cnc3c(=O)[nH]c(N)nc32)cc1	> 300
CC(C)(C)OC(=O)N1CCN(CCOc2cc(-c3ccccc3)on2)CC1	110 to 111
O=C(C=Cc1ccncc1)c1ccc(F)cc1	157
[N-]=[N+]=Nc1c(F)c(F)c(C(=O)O)c(F)c1F	140 to 141
CC(=O)Oc1cc(C(C)=O)c(O)cc1NS(C)(=O)=O	205 to 206
COC(=O)c1cc(C(C)(C)C#N)cc(C(C)(C)C#N)c1	83 to 85
N#CC1(SCc2ccccc2)C2CC3CC(C2)CC1C3 (stereo not drawn)	73 to 75
